Laboratory results taken from ChEMBL document CHEMBL1201862, “PubChem BioAssay data set” (2004).
Each block holds one compound with its values, some of them ahead of it. Calls of active or inactive are those of the source.

Legend:
[1] = molecular target: Heat shock protein HSP 90-alpha (Homo sapiens, UniProt P07900); assay type: functional, organism-based
[2] = molecular target: T1, Short transient receptor potential channel 4 (Mus musculus, UniProt Q9QUQ5); assay: block of DAMGO-driven TRPC4 calcium entry – cell-based, HEK293 TRPC4/mu-opioid, Fluo-4 calcium, dose response (AID 434942); assay type: functional;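 note: potency of inhibitors blocking the TRPC4 calcium response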
T1 sequence (Q9QUQ5 whole entry): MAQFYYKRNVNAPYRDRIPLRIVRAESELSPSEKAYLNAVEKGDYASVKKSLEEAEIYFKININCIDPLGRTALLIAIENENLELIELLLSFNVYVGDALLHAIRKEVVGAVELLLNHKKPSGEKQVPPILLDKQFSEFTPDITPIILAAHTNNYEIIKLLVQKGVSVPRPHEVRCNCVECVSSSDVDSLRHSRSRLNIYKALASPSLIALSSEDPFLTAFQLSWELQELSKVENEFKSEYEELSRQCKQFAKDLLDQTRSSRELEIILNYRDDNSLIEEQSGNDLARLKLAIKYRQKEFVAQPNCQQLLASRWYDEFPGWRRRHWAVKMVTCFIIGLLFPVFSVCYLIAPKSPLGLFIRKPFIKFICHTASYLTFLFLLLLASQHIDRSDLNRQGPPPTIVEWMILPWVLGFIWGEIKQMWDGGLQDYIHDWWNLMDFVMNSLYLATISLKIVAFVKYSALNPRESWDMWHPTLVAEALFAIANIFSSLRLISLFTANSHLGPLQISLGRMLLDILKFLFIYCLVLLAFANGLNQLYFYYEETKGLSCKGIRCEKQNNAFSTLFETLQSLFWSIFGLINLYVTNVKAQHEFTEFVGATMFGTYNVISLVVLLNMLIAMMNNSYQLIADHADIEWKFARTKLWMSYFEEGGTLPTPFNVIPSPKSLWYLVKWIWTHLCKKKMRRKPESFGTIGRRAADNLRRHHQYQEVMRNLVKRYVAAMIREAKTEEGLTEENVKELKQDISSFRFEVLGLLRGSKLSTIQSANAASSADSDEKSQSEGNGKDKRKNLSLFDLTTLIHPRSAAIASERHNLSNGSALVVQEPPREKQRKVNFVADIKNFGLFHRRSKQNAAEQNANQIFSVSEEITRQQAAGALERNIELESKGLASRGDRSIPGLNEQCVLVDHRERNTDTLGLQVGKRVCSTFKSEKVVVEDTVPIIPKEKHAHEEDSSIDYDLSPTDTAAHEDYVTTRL

[3] = molecular target: T1, Short transient receptor potential channel 4; assay: calcium entry via TRPC4 opening agents – cell-based, HEK293 TRPC4/mu-opioid, Fluo-4 calcium, dose response (AID 434937); assay type: functional
BJ [4] = assay: BJ-TERT fibroblast viability loss – cell-based, RAS-independent, luminescence, dose response (AID 1933); assay type: functional; details: Homo sapiens
[5] = HEK-293T viability loss after treatment – luminescence, T-cell screen hits, cytotoxicity control for TCR NF-kB inhibitor project, dose response (AID 489026); assay type: functional, cell-based;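 note: cells exposed to compound about 14 hours before the viability readout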
BJ [6] = assay: cells; assay type: functional, cell-based; details: Homo sapiens
BJ [7] = assay: BJ-TERT-LT-ST fibroblast viability loss – cell-based, RAS-independent, luminescence, dose response (AID 1935); assay type: functional; details: Homo sapiens;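 note: BJ fibroblasts immortalized with TERT plus LT and ST oncogenes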
[8] = DRD fibroblast viability loss – cell-based, non-viral oncogenic, luminescence, dose response (AID 1934); assay type: functional; details: Homo sapiens
[9] = Fluorescence-based cell-based high throughput dose response assay for inhibitors of the interaction of nucleotide-binding oligomerization domain containing 2 (NOD2) and the receptor-interacting serine-threonine kinase 2 (RIPK2).; assay type: functional; details: Homo sapiens
cells = assay type: functional, cell-based
[10] = molecular target: T2, Nuclear receptor subfamily 0 group B member 1 (Homo sapiens, UniProt P51843); assay type: functional, cell-based;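 note: HEK293T cells transfected with SF-1 and DAX-1 plus StAR promoter luciferase reporter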
T2 sequence (P51843 whole entry): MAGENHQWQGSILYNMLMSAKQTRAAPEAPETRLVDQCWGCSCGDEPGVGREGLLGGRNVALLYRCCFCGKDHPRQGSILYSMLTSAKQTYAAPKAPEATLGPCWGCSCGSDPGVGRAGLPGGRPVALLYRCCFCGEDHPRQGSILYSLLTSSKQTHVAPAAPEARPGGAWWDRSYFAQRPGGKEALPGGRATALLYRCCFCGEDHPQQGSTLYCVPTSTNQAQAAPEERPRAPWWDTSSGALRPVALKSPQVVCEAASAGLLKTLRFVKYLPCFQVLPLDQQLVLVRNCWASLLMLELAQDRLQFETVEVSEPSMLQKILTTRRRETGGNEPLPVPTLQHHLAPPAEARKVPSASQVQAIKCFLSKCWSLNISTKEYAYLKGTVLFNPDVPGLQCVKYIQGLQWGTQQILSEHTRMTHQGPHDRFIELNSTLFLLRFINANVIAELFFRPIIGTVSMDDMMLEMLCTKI

Paired box protein Pax-8 = Paired box protein Pax-8 (Homo sapiens, UniProt Q06710); assay: PAX8 transcriptional activity inhibition in RMG-I – RMG-I cells, luciferase, cherry-pick, dose response (AID 687027); assay type: functional, cell-based;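 note: luciferase reporter driven by Pax8 target thyroperoxidase promoter measured by SteadyGlo luminescence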
Paired box protein Pax-8, sequence (Q06710 whole entry): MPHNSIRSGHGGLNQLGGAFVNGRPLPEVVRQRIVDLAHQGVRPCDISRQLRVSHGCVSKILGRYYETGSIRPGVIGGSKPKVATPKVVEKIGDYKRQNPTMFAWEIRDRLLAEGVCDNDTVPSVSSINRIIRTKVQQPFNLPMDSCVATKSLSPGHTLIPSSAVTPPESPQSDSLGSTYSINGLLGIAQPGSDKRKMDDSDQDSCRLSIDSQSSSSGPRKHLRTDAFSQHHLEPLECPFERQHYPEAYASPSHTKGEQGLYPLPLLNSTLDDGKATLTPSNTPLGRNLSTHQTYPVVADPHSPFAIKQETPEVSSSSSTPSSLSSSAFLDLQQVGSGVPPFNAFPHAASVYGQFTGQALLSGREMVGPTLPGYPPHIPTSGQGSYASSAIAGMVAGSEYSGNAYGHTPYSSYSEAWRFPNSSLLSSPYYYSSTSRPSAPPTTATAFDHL

[11] = molecular target: T3, Apoptotic protease-activating factor 1 (Homo sapiens, UniProt O14727); assay type: functional
T3 sequence (O14727 whole entry): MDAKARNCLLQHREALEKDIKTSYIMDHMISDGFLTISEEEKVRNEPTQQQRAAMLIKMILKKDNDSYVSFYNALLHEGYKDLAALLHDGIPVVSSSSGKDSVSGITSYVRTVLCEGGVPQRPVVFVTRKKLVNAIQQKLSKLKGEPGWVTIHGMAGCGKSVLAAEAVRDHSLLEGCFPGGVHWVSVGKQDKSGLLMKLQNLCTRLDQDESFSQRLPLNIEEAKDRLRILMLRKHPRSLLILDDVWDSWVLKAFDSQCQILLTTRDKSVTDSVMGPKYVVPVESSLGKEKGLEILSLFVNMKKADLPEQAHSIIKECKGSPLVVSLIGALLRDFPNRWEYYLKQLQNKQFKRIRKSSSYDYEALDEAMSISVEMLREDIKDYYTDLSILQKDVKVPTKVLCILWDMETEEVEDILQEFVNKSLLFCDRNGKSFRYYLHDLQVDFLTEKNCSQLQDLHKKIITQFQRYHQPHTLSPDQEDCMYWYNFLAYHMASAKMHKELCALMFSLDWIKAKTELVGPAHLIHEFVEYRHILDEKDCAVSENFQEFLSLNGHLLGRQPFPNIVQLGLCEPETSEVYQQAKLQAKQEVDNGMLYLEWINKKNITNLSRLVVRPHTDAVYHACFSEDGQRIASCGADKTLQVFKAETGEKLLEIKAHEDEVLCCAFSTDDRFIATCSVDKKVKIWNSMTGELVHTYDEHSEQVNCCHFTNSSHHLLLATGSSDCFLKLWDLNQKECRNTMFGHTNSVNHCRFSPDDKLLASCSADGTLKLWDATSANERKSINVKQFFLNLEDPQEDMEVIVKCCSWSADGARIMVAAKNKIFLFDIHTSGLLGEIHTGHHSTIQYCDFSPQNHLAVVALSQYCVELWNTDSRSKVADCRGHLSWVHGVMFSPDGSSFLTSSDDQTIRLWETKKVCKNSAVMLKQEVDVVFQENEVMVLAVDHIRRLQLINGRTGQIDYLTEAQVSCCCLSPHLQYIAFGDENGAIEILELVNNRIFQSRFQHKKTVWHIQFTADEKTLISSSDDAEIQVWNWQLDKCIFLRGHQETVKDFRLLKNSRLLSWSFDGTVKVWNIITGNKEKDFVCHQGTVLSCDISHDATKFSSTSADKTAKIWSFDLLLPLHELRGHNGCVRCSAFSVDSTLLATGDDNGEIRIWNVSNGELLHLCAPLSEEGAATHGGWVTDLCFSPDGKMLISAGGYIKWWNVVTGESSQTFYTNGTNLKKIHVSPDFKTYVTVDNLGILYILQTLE

Large T antigen = Large T antigen (Simian virus 40, UniProt P03070); assay type: functional, Betapolyomavirus macacae;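 note: Confirmatory-stage PubChem screen for compounds that inhibit SV40 T antigen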
Large T antigen, sequence (P03070 whole entry): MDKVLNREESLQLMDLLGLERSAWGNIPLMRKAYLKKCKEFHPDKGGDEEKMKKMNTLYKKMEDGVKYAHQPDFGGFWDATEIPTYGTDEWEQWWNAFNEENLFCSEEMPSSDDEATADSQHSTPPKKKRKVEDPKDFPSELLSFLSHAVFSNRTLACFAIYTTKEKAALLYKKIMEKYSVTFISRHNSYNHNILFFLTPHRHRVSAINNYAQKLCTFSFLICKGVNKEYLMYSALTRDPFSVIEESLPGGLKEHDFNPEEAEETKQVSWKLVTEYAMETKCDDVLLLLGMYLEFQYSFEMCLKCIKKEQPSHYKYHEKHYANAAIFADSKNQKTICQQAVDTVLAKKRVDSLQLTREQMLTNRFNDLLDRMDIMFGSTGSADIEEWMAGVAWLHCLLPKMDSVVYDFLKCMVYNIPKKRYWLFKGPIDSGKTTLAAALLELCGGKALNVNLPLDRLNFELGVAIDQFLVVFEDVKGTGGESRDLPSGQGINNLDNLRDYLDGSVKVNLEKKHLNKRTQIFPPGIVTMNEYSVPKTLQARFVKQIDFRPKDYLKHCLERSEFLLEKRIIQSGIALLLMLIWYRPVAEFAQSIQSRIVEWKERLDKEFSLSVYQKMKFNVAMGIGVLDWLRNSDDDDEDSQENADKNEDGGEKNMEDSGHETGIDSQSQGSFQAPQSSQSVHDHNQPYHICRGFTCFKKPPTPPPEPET

INS1 = assay: INS-1E survival protection against cytokine death – cell-based, luminescence, retest, dose response (AID 449756); assay type: functional; details: Rattus norvegicus;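 note: cell death triggered by IL-1 beta plus TNF-alpha plus IFN-gamma mixture; protective hits raise ATP signal compared with cytokine alone wells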
[12] = reduction of Shn3 3'UTR-driven luciferase in osteoblasts – cell-based, Clone20 osteoblasts, firefly luciferase, cherry-picked, dose response (AID 624132); assay type: functional;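 note: firefly luciferase luminescence from reporter carrying the Shn3 3'UTR in osteoblasts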
[13] = loss of viability in HepG2 cells – cell-based, CellTiter-Glo, cherry-picked, cytotoxicity control for Shn3 inhibitor project, dose response (AID 624134); assay type: functional
[14] = non-specific 3'UTR reporter inhibition in Clone20-Shn3RL – cell-based, Renilla luciferase, cherry-picked, counter-screen for Shn3 inhibitor project, dose response (AID 624133); assay type: functional
Cytochrome P450 3A4 = Cytochrome P450 3A4 (Homo sapiens, UniProt P08684);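 note: CYP3A4 tested as one member of a cytochrome P450 panel screen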
Cytochrome P450 3A4, sequence (P08684 whole entry): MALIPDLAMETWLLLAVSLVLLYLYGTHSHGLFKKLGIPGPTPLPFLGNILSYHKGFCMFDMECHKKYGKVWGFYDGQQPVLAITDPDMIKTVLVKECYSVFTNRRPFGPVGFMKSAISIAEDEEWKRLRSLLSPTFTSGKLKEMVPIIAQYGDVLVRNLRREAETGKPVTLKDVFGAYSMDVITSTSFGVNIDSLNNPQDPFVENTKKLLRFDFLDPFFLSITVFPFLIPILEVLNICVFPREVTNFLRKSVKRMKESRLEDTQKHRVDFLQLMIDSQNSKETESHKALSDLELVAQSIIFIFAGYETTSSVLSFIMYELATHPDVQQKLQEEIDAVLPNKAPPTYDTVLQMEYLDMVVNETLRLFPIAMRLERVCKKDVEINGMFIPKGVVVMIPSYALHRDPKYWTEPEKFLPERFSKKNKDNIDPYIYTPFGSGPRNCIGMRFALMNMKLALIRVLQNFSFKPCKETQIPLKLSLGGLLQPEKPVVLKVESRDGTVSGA

- AC50 [1]: 4.01 µM (active)
Compound: Cc1cc(C)c2c(N=NN3CCCCC3)[nH]nc2n1

- EC50 [2]: 0.473 µM (active)
- EC50 [3]: 0.749 µM (active)
Compound: Cc1ccc(COn2c(-c3ccc(Cl)cc3Cl)nc3ncccc32)cc1

Compound: CC(=O)Nc1ccc(S(=O)(=O)N2c3ccccc3C(C)=CC2(C)C)cc1
- EC50 (BJ [4]): 7.82 µM (inconclusive)
- IC50 [5]: > 80 µM (inactive)
- EC50 (BJ [6]): 13 µM (inconclusive)
- EC50 (BJ [7]): 9.33 µM (inconclusive)
- EC50 [8]: 10.4 µM (inconclusive)
- IC50 [9]: 49.7 µM (inactive)

Compound: COc1c(C=O)c2c(c(OC)c1OC)-c1ccc(OC)c(=O)cc1C(NC(C)=O)CC2 (configuration not stated)
- IC50 (cells): > 67.5 µM (inactive)
- IC50 [10]: > 67.5 µM (inactive)
- AC50 (Paired box protein Pax-8): < 0.26 µM (active)

- IC50 [11]: 20.5 µM (active)
- IC50 (Large T antigen): > 100 µM (active)
Compound: COc1cc(-c2c(C#N)c(O)nc3c2c(C)nn3-c2ccccc2)ccc1O

Compound: CC(Oc1cccc(Cl)c1)C(=O)Nc1cc(S(=O)(=O)N2CCOCC2)ccc1N1CCCCC1 (configuration not stated)
- IC50 [11]: 74.9 µM (active)
- AC50 (INS1): 5.41 µM (active)

Compound: Cc1noc2ncnc(Sc3c(Cl)cccc3Cl)c12
- IC50 [9]: 4.6 µM (active)

Compound: O=C(OCc1ccccc1)c1ccc(NCc2cc(O)ccc2O)cc1
- AC50 [12]: 0.711 µM (active)
- AC50 [1]: 8.63 µM (active)
- AC50 [13]: 22 µM (active)
- AC50 [14]: 3.87 µM (active)

- AC50 (Cytochrome P450 3A4): inconclusive
Compound: Cn1cccc1C(=O)N1CCC2(CCN(C(=O)Nc3ccccc3)CC2)CC1
